From US20250368616A1, “NITROGEN-CONTAINING HETEROCYCLIC DERIVATIVE INHIBITOR, AND PREPARATION METHOD THEREFOR AND USE THEREOF” (SHANGHAI HANSOH BIOMEDICAL CO., LTD., priority 2021, published 2025)

Columns and labels:
[1] = test system: Ba/F3 EGFR Del19/C797S cells; test: Cell proliferation inhibition assay (Cell Titer-Glo), Ba/F3 EGFR Del19/C797S; format: cell-based; conditions: 72 hours, read-out: Ba/F3 EGFR Del19_C797S IC50
Method in brief: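 Ba/F3 cells carrying EGFR Del19/T790M/C797S or Del19/C797S, grown in RPMI 1640 with 10% FBS, were plated overnight and then exposed to serially diluted compound for 72 h at 37° C, 5% CO2. Viability was read by CellTiter-Glo luminescence; IC50 came from a nonlinear fit of inhibition rate against concentration.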

[2] = test system: Ba/F3 EGFR Del19/T790M/C797S cells; test: Cell proliferation inhibition assay (Cell Titer-Glo), Ba/F3 EGFR Del19/T790M/C797S; format: cell-based; conditions: 72 hours, read-out: Ba/F3 EGFR Del19_T790M_C797S IC50
Source text: Test Example 2: Cell Proliferation Inhibition Assay
Experimental objective: The objective of this test example is to test the inhibitory activity of compounds on the proliferation of different EGFR C797S drug-resistant mutant cell lines Ba/F3 EGFR Del19/T790M/C797S, Ba/F3 EGFR L858R/T790M/C797S, and Ba/F3 EGFR Del19/C797S.
• Ba/F3 EGFR Del19/T790M/C797S cells were purchased from KYinno Biotechnology Co., Ltd.; • Ba/F3 EGFR Del19/C797S cells were purchased from CoBioer Biosciences Co., Ltd.; • Ba/F3 EGFR L858R/T790M/C797S cells were purchased from CoBioer Biosciences Co., Ltd.; • Cell Titer-Glo was purchased from Promega, with a catalog number of G7573; • RPMI 1640 was purchased from Gibco, with a catalog number of 22400089; • FBS was purchased from Gibco, with a catalog number of 10091148; • cell culture plates were purchased from Corning, with a catalog number of 3610.
The inhibitory activity of the compound on the proliferation of different EGFR C797S drug-resistant mutant cell lines was detected using the Cell Titer-Glo method. The different cell lines were cultured in RPMI 1640 complete culture medium containing 10% FBS under conditions of 37° C. and 5% CO2, the cells were collected by centrifugation when growing to a certain density, and adjusted to appropriate cell density after counting, the cells were spread on a white 96-well plate at 90 μL/well, and cultured in a 37° C., 5% CO2 incubator overnight, prepared compound solutions of different concentrations were added at 10 μL/well, corresponding solvent controls were set, and all wells were cultured in a 37° C., 5% CO2 incubator for 72 hours, 50 μL of CellTiter-Glo solution was added to each well, shook and mixed evenly, and incubated in the dark for 10 minutes, and a BioTek Synergy H1 microplate reader was used for reading.
The luminescence signal value was used to calculate the inhibition rate. Graphpad Prism software was used to fit the concentration and inhibition rate to a nonlinear regression curve, so as to obtain the IC50 value, as shown in Tables 3 and 4 below for details.

[3] = biological target: EGFR del19/T790M/C797S mutant kinase (Homo sapiens, UniProt P00533, C797S/DEL746-750/T790M); test: HTRF kinase assay, EGFR del19/T790M/C797S mutant kinase; format: biochemical; conditions: 120 minutes at room temperature
Chain of EGFR del19/T790M/C797S mutant kinase (P00533 with tags, fused parts or gaps C797S/DEL746-750/T790M limits assumed): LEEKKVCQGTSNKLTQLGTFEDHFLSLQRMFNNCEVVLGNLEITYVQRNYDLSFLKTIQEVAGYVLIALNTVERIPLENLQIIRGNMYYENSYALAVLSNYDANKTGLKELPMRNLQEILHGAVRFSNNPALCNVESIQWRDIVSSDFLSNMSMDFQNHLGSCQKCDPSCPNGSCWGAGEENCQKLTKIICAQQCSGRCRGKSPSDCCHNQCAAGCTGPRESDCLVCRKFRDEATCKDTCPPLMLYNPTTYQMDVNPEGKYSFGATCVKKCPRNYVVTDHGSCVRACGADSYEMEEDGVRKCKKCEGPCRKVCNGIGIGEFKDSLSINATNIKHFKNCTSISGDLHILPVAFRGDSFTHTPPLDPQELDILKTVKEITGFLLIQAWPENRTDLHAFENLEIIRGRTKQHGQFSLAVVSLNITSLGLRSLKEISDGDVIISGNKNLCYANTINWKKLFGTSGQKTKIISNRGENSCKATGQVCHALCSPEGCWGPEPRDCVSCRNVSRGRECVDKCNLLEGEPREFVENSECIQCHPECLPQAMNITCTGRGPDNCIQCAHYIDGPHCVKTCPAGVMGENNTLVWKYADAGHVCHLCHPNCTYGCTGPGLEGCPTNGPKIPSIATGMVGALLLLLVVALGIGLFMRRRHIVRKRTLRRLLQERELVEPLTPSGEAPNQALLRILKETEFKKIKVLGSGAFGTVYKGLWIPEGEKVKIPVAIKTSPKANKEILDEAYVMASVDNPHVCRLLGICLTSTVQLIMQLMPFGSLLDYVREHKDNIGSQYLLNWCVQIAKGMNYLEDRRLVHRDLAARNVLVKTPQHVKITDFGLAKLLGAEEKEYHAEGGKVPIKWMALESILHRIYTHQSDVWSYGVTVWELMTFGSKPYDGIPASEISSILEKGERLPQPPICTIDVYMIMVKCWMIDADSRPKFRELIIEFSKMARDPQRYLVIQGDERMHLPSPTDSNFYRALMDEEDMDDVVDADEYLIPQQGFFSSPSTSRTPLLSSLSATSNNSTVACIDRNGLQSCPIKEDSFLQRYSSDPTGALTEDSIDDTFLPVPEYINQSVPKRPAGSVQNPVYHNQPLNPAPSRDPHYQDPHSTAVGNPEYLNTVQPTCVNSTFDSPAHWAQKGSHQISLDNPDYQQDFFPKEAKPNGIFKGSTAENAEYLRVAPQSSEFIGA
Source text: (§1) Test Example 1. Determination of the Inhibitory Effect of the Compounds of the Present Invention on the Activity of EGFR del19/T790M/C797S and EGFR L858R/T790M/C797S Mutant Kinases
(§2) Experimental objective: The objective of this test example is to test the inhibitory activity of the compounds on the activity of EGFR del19/T790M/C797S and EGFR L858R/T790M/C797S mutant kinases.
(§3) Experimental method: This experiment used Cisbio's HTRF kinase assay method (Cisbio #62TK0PEB), wherein a catalytic reaction occurred between the substrate polypeptide TK and ATP in the presence of the tyrosine kinase with EGFR del19/T790M/C797S or EGFR L858R/T790M/C797S mutation, the substance was phosphorylated, and the activity of the kinase was characterized by measuring the content of the phosphorylated substrate generated during the reaction, and the half inhibitory concentration IC50 of the compound on the activity of EGFR del19/T790M/C797S or EGFR L858R/T790M/C797S mutant kinase was obtained.
(§4) Specific Experimental Operations were as Follows: • the kinase reaction was carried out in a white 384-well plate (Perkin Elmer #6008280), and 1-5 μL of compounds of different concentrations which were diluted with 1% DMSO-containing ddH2O were added; to the positive control wells were added 1-5 μL of 1% DMSO-containing ddH2O, followed by 1-5 μL of 0.5-5 nM 4×EGFR del19/T790M/C797S or EGFR L858R/T790M/C797S mutant kinase solution which was diluted with Dilution buffer (5× kinase buffer, MgCl2 6.65 Mm, MnCl2 1.33 mM, DTT 1.33 mM); to the negative control wells were added 1-5 μL of Dilution buffer; to all the wells were added 1-5 μL of 4 μM 4× substrate TK solution which was prepared with 10× Dilution buffer, and finally added 1-5 μL of 24 μM 4×ATP solution which was diluted with Dilution buffer to start the reaction; after reacting at room temperature for 120 minutes, 10 μL of detection solution (TK antibody 16 nM, XL665 0.5 μM) was added to each well, same was reacted at room temperature in the dark for 20 minutes, and then the […] was detected using a BioTek Synergy H1 microplate reader.
(§5) The percent inhibition data for compound-treated wells was calculated according to the positive control wells (DMSO control wells) and negative control wells (no kinase added) on the plate {% inhibition rate=100−[(test compound value−negative control value)]/(positive control value−negative control value)×100}. GraphPad prism was used to fit different concentrations and corresponding percent inhibition rate data to a 4-parameter nonlinear logistic equation to calculate IC50 values.

[4] = biological target: EGFR L858R/T790M/C797S mutant kinase (Homo sapiens (Human), UniProt P00533, C797S/L858R/T790M); test: HTRF kinase assay, EGFR L858R/T790M/C797S mutant kinase; format: biochemical; conditions: 120 minutes at room temperature
Chain of EGFR L858R/T790M/C797S mutant kinase (P00533 25-1210 T790M/C797S/L858R): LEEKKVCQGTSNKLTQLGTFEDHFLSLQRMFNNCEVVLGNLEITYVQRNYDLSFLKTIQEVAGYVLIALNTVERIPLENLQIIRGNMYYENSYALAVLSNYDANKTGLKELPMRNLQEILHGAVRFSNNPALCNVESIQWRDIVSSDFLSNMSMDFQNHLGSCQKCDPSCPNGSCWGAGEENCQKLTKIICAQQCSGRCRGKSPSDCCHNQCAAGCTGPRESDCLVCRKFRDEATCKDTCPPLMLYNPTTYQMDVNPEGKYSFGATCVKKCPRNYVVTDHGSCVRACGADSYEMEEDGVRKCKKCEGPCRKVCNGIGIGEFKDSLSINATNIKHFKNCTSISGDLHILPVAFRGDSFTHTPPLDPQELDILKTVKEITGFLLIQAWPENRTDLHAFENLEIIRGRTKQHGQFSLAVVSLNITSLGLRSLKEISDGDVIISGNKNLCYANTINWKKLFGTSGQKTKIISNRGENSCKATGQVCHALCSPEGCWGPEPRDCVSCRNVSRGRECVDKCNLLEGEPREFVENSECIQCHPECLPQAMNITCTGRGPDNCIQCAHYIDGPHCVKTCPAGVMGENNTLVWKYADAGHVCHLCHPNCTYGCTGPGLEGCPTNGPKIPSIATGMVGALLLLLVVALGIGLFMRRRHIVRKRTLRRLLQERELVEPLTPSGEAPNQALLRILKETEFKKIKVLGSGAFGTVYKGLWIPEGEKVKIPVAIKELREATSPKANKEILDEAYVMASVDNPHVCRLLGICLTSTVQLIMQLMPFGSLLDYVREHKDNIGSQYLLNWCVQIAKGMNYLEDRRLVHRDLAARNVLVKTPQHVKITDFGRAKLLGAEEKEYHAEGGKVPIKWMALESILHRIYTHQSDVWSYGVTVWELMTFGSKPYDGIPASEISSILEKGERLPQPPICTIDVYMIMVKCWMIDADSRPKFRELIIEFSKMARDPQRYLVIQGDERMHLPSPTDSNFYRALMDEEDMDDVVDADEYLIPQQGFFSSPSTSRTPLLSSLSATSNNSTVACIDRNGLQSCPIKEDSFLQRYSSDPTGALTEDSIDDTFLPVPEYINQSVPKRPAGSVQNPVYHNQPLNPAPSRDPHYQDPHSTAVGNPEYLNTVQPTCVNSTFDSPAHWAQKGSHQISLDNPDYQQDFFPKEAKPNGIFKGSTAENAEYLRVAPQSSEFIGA
Source text: as §1, §2, §3, §4, §5

SMILES | IC50 [1] [nM] | IC50 [2] [nM] | IC50 [3] [nM] | IC50 [4] [nM]
CC(C)c1cnc(N2CC(CS(C)(=O)=O)C2)c2cnc(Nc3ccnc(-c4cnn(S(=O)(=O)C5CC5)c4)n3)cc12 [Example 3, N-(2-(1-(cyclopropylsulfonyl)-1H-pyrazol-4-yl)pyrimidin-4-yl)-5-isopropyl-8-(3-((methanesulfonyl)methyl)azetidin-1-yl)-2,7-diazanaphthalen-3-amine] | 10 | 5.5 | 9.4 | 
COCC1(Cn2cc(-c3nccc(Nc4cc5c(C(C)C)ccc(N6C[C@H](CS(C)(=O)=O)[C@H]6C)c5cn4)n3)cn2)CC1 [Example 66, 5-isopropyl-N-(2-(1-((1-(methoxymethyl)cyclopropyl)methyl)-1H-pyrazol-4-yl)pyrimidin-4-yl)-8-((2R,3S)-2-methyl-3-((methanesulfonyl)methyl)azetidin-1-yl)isoquinolin-3-amine] | 78 |  |  | 0.17
CC(C)c1ccc(N2C[C@H](CS(C)(=O)=O)[C@H]2C)c2cnc(Nc3ccnc(-c4cnn(C5CCN(C)CC5)c4)n3)cc12 [Example 14, 5-isopropyl-8-((2R,3S)-2-methyl-3-((methanesulfonyl)methyl)azetidin-1-yl)-N-(2-(1-(1-methylpiperidin-4-yl)-1H-pyrazol-4-yl)pyrimidin-4-yl)isoquinolin-3-amine] | 54 |  | 3.6 | 0.73
CC(C)c1ccc(N2C[C@H](CS(C)(=O)=O)[C@H]2C)c2cnc(Nc3ccnc(-c4cnn(CC(F)(F)F)c4)n3)cc12 [Example 26, 5-isopropyl-8-((2R,3S)-2-methyl-3-((methanesulfonyl)methyl)azetidin-1-yl)-N-(2-(1-(2,2,2-trifluoroethyl)-1H-pyrazol-4-yl)pyrimidin-4-yl)isoquinolin-3-amine] | 78 |  |  | 1
CC(C)c1ccc(N2CC(CS(C)(=O)=O)C2)c2cnc(Nc3ccnc(-c4cnn(S(=O)(=O)C5CC5)c4)n3)cc12 [Example 1, N-(2-(1-(cyclopropylsulfonyl)-1H-pyrazol-4-yl)pyrimidin-4-yl)-5-isopropyl-8-(3-((methanesulfonyl)methyl)azetidin-1-yl)isoquinolin-3-amine] | 14 | 10 | 0.58 | 0.51
CC(C)c1ccc(N2C[C@H](CS(C)(=O)=O)[C@H]2C)c2cnc(Nc3ccnc(-c4cn[nH]c4)n3)cc12 [Example 17, N-(2-(1H-pyrazol-4-yl)pyrimidin-4-yl)-5-isopropyl-8-((2R,3S)-2-methyl-3-((methanesulfonyl)methyl)azetidin-1-yl)isoquinolin-3-amine] |  |  | 3 | 0.71
CC(C)c1ccc(N2C[C@H](CS(C)(=O)=O)[C@H]2C)c2cnc(Nc3ccnc(-c4cnn(CC5CCO5)c4)n3)cc12 (stereo partly drawn) [Example 21, 5-isopropyl-8-((2R,3S)-2-methyl-3-((methanesulfonyl)methyl)azetidin-1-yl)-N-(2-(1-(oxetan-2-ylmethyl)-1H-pyrazol-4-yl)pyrimidin-4-yl)isoquinolin-3-amine] | 96 |  | 3.9 | 0.6
CC(C)c1ccc(N2C[C@H](CS(C)(=O)=O)[C@H]2C)c2cnc(Nc3ccnc(-c4cnn(C)c4)n3)cc12 [Example 24, 5-isopropyl-N-(2-(1-methyl-1H-pyrazol-4-yl)pyrimidin-4-yl)-8-((2R,3S)-2-methyl-3-((methanesulfonyl)methyl)azetidin-1-yl)isoquinolin-3-amine] | 29 | 10 | 3.6 | 0.3
CC(C)c1ccc(N2C[C@H](CS(C)(=O)=O)[C@H]2C)c2cnc(Nc3ccnc(-c4cnn(CC5(C#N)CC5)c4)n3)cc12 [Example 19, 1-((4-(4-((5-isopropyl-8-((2R,3S)-2-methyl-3-((methanesulfonyl)methyl)azetidin-1-yl)isoquinolin-3-yl)amino)pyrimidin-2-yl)-1H-pyrazol-1-yl)methyl)cyclopropane-1-carbonitrile] |  |  | 2.5 | 1
CC(C)c1ccc(N2C[C@H](CS(C)(=O)=O)[C@H]2C)c2cnc(Nc3ccnc(-c4cnn(CCF)c4)n3)cc12 [Example 27, N-(2-(1-(2-fluoroethyl)-1H-pyrazol-4-yl)pyrimidin-4-yl)-5-isopropyl-8-((2R,3S)-2-methyl-3-((methanesulfonyl)methyl)azetidin-1-yl)isoquinolin-3-amine] | 40 |  | 8.9 | 1.9
CC(C)c1ccc(N2C[C@H](CS(C)(=O)=O)[C@H]2C)c2cnc(Nc3ccnc(-c4cnn(C5COC5)c4)n3)cc12 [Example 20, 5-isopropyl-8-((2R,3S)-2-methyl-3-((methanesulfonyl)methyl)azetidin-1-yl)-N-(2-(1-(oxetan-3-yl)-1H-pyrazol-4-yl)pyrimidin-4-yl)isoquinolin-3-amine] |  |  | 6.2 | 0.92
CC(C)c1ccc(N2C[C@H](CS(C)(=O)=O)[C@H]2C)c2cnc(Nc3ccnc(-c4cnn(C5CC5)c4)n3)cc12 [Example 15, N-(2-(1-cyclopropyl-1H-pyrazol-4-yl)pyrimidin-4-yl)-5-isopropyl-8-((2R,3S)-2-methyl-3-((methanesulfonyl)methyl)azetidin-1-yl)isoquinolin-3-amine] | 41 |  | 2.5 | 1.9
CC(C)c1ccc(N2CC(N(C)S(C)(=O)=O)C2)c2cnc(Nc3ccnc(-c4cn(CCO)nc4Cl)n3)cc12 [Example 79, N-(1-(3-((2-(3-chloro-1-(2-hydroxyethyl)-1H-pyrazol-4-yl)pyrimidin-4-yl)amino)-5-isopropylisoquinolin-8-yl)azetidin-3-yl)-N-methyl Methanesulfonamide] | 11 | 7.7 |  | 
